Laboratory results as given in US20020002170A1, “Piperidine and piperazine derivatives as inhibitors of the abeta fibril formation” (priority 1999, published 2002).
Structures can show the parent of a compound that is named as a salt.

melting point	Compound
184 to 187 °C (dec.)	COc1ccc(C2(c3ccc(OC)cc3)CCN(CC[C@@H]3C=C4c5cccc6[nH]cc(c56)C[C@H]4N(C)C3)CC2)cc1
154 to 157 °C	CN1C[C@H](CCN2CCC(O)(c3ccc(Cl)cc3)CC2)C=C2c3cccc4[nH]cc(c34)C[C@H]21
165 to 169 °C	CN1C[C@H](CCN2CCN(C(c3ccccc3)c3ccccc3)CC2)C=C2c3cccc4[nH]cc(c34)C[C@H]21
> 200 °C (dec.)	CN1C[C@H](CN2CCN(C(c3ccccc3)c3ccccc3)CC2)C=C2c3cccc4[nH]cc(c34)C[C@H]21
101 to 107 °C	CN1C[C@H](CN2CCC(O)(c3ccc(Cl)cc3)CC2)C=C2c3cccc4c3c(cn4C)C[C@H]21
172 to 175 °C	CN1C[C@H](CN2CCN(C(c3ccccc3)c3ccccc3)CC2)C=C2c3cccc4c3c(cn4C)C[C@H]21
> 204 °C (dec.)	COc1ccc(C2(c3ccc(OC)cc3)CCN(C[C@@H]3C=C4c5cccc6[nH]c(Cl)c(c56)C[C@H]4N(C)C3)CC2)cc1
> 192 °C (dec.)	CN1C[C@H](CN2CCC(O)(c3ccc(Cl)cc3)CC2)C=C2c3cccc4[nH]c(Cl)c(c34)C[C@H]21
208 °C (dec.)	CN1C[C@H](CN2CCN(C(c3ccccc3)c3ccccc3)CC2)C=C2c3cccc4[nH]c(Cl)c(c34)C[C@H]21
230 to 233 °C	CN1C[C@H](CN2CCN(C(c3ccccc3)c3ccccc3)CC2)C[C@@H]2c3cccc4[nH]cc(c34)C[C@H]21
250 °C (dec.)	CN1C[C@H](CN2CCN(C(c3ccccc3)c3ccccc3)CC2)C[C@@H]2c3cccc4[nH]c(Cl)c(c34)C[C@H]21
255 °C (dec.)	CN1C[C@H](CN2CCN(C(c3ccccc3)c3ccccc3)CC2)C[C@@H]2c3cccc4[nH]c(Br)c(c34)C[C@H]21
203 to 205 °C	CCN1C[C@H](CN2CCN(C(c3ccccc3)c3ccccc3)CC2)C[C@@H]2c3cccc4[nH]cc(c34)C[C@H]21
206 to 212 °C	CN1C[C@H](CCN2CCN(C(c3ccccc3)c3ccccc3)CC2)C[C@@H]2c3cccc4[nH]cc(c34)C[C@H]21
215 to 222 °C	COc1ccc(C2(c3ccc(OC)cc3)CCN(C[C@H]3CN(C)[C@@H]4Cc5c[nH]c6cccc(c56)[C@@]4(OC)C3)CC2)cc1
144 to 148 °C	CO[C@]12C[C@@H](CN3CCC(O)(c4ccc(Cl)cc4)CC3)CN(C)[C@@H]1Cc1c[nH]c3cccc2c13
135 to 140 °C	CO[C@]12C[C@@H](CN3CCC(O)(c4cccc(C(F)(F)F)c4)CC3)CN(C)[C@@H]1Cc1c[nH]c3cccc2c13
143 to 146 °C	CO[C@]12C[C@@H](CN3CCC(O)(c4ccc(Cl)c(C(F)(F)F)c4)CC3)CN(C)[C@@H]1Cc1c[nH]c3cccc2c13
129 to 136 °C	COc1ccc(C2(c3ccc(OC)cc3)CCN(CC[C@H]3CN(C)[C@@H]4Cc5c[nH]c6cccc(c56)[C@@]4(OC)C3)CC2)cc1
133 to 139 °C	CO[C@]12C[C@@H](CCN3CCC(O)(c4ccc(Cl)cc4)CC3)CN(C)[C@@H]1Cc1c[nH]c3cccc2c13
130 °C	CO[C@]12C[C@@H](CCN3CCN(C(c4ccccc4)c4ccccc4)CC3)CN(C)[C@@H]1Cc1c[nH]c3cccc2c13
202 to 204 °C	COc1cccc2c1C[C@H]1C[C@@H](CN3CCC(O)(c4ccc(Cl)cc4)CC3)CN(C)[C@@H]1C2
216 to 219 °C	COc1ccc(C2(c3ccc(OC)cc3)CCN(C[C@@H]3C[C@@H]4Cc5c(cccc5OC)C[C@H]4N(C)C3)CC2)cc1 (as salt: fumarate)
138 to 142 °C	COc1ccc(C2(c3ccc(OC)cc3)CCN(CC[C@@H]3C[C@@H]4Cc5c(cccc5OC)C[C@H]4N(C)C3)CC2)cc1 (as salt: succinate)
212 to 215 °C	COc1cccc2c1C[C@H]1C[C@@H](CCN3CCC(O)(c4ccc(Cl)cc4)CC3)CN(C)[C@@H]1C2 (as salt: succinate)
167 to 172 °C	COc1ccc(C2(c3ccc(OC)cc3)CCN(C[C@H]3CN(C)[C@@H]4Cc5c(Br)[nH]c6cccc(c56)[C@@]4(OC)C3)CC2)cc1 (as salt: tartrate)
140 to 148 °C	COc1cccc2c1C[C@H]1C[C@@H](CCN3CCN(C(c4ccccc4)c4ccccc4)CC3)CN(C)[C@@H]1C2 [Example 5, [3S,4aR,10aR]-3-[2-(4-Benzhydryl-piperazin-1-yl)-ethyl]-6-methoxy-1-methyl-1,2,3,4,4a,5,10,10a-octahydro-benzo[g]quinoline]
278 to 280 °C	COc1cccc2c1C[C@H]1C[C@@H](CN3CCN(C(c4ccccc4)c4ccccc4)CC3)CN(C)[C@@H]1C2 [Example 10, [3S,4aR,10aR]-3-(4-Benzhydryl-piperazin-1-ylmethyl)-6-methoxy-1-methyl-1,2,3,4,4a,5,10,10a-octahydro-benzo[g]quinoline]
219 to 222 °C	COc1cccc2c1C[C@H]1C[C@@H](CN3CCC(NC(=O)C(c4ccccc4)c4ccccc4)CC3)CN(C)[C@@H]1C2 [Example 12, N-[1-((3S,4aR,10aR)-6-Methoxy-1-methyl-1,2,3,4,4a,5,10,10a-octahydro-benzo[g]quinolin-3-ylmethyl)-piperidin-4-yl]-2,2-diphenyl-acetamide]
